Experimental data from the NIST ThermoML archive (doi:10.1021/je050031f).
± gives the expanded uncertainty stated by the source.

How the values were obtained:
[1] = xn = mol fraction of the nth substance listed; details: 100.8 kPa, Liquid; for viscosity: Capillary tube (Ostwald / Ubbelohde) method
[2] = refractive index (Na D-line) (dimensionless); xn = mol fraction of the nth substance listed; details: 100.8 kPa, Liquid, Standard Abbe refractometry

CC1CCCCC1 [methylcyclohexane] + CC(C)OC(C)C
Details | mass density, 288.15 K [kg/m3] | mass density, 298.15 K [kg/m3] | mass density, 308.15 K [kg/m3] | refractive index, 288.15 K | refractive index, 298.15 K | refractive index, 308.15 K | viscosity, 288.15 K [mPa·s] | viscosity, 298.15 K [mPa·s] | viscosity, 308.15 K [mPa·s]
[1], x2 = 0 | 773.4 ± 0.3 | 765 ± 0.3 | 756.3 ± 0.3 | – | – | – | 0.784 | 0.685 | 0.6
[1], x2 = 0.0502 | 771.3 ± 0.3 | 762.5 ± 0.3 | 753.8 ± 0.3 | – | – | – | 0.744 | 0.653 | 0.575
[1], x2 = 0.1 | 768.9 ± 0.3 | 760.1 ± 0.3 | 751.3 ± 0.3 | – | – | – | 0.697 | 0.612 | 0.542
[1], x2 = 0.15 | 766.6 ± 0.3 | 757.7 ± 0.3 | 748.8 ± 0.3 | – | – | – | 0.66 | 0.579 | 0.514
[1], x2 = 0.2 | 764.3 ± 0.3 | 755.3 ± 0.3 | 746.3 ± 0.3 | – | – | – | 0.627 | 0.551 | 0.489
[1], x2 = 0.25 | 761.9 ± 0.3 | 752.9 ± 0.3 | 743.8 ± 0.3 | – | – | – | 0.595 | 0.524 | 0.467
[1], x2 = 0.3 | 759.6 ± 0.3 | 750.5 ± 0.3 | 741.3 ± 0.3 | – | – | – | 0.568 | 0.502 | 0.448
[1], x2 = 0.35 | 757.4 ± 0.3 | 748.1 ± 0.3 | 738.9 ± 0.3 | – | – | – | 0.543 | 0.481 | 0.43
[1], x2 = 0.4 | 755.1 ± 0.3 | 745.8 ± 0.3 | 736.4 ± 0.3 | – | – | – | 0.522 | 0.464 | 0.415
[1], x2 = 0.45 | 752.8 ± 0.3 | 743.4 ± 0.3 | 734 ± 0.3 | – | – | – | 0.503 | 0.447 | 0.401
[1], x2 = 0.5 | 750.6 ± 0.3 | 741.1 ± 0.3 | 731.6 ± 0.3 | – | – | – | 0.484 | 0.431 | 0.387
[1], x2 = 0.55 | 748.4 ± 0.3 | 738.8 ± 0.3 | 729.2 ± 0.3 | – | – | – | 0.466 | 0.415 | 0.373
[1], x2 = 0.6 | 746.2 ± 0.3 | 736.5 ± 0.3 | 726.8 ± 0.3 | – | – | – | 0.447 | 0.399 | 0.36
[1], x2 = 0.65 | 743.9 ± 0.3 | 734.2 ± 0.3 | 724.4 ± 0.3 | – | – | – | 0.431 | 0.385 | 0.347
[1], x2 = 0.7 | 741.7 ± 0.3 | 731.9 ± 0.3 | 722 ± 0.3 | – | – | – | 0.415 | 0.372 | 0.335
[1], x2 = 0.75 | 739.6 ± 0.3 | 729.6 ± 0.3 | 719.6 ± 0.3 | – | – | – | 0.403 | 0.361 | 0.325
[1], x2 = 0.8 | 737.4 ± 0.3 | 727.3 ± 0.3 | 717.3 ± 0.3 | – | – | – | 0.389 | 0.349 | 0.316
[1], x2 = 0.85 | 735.3 ± 0.3 | 725.1 ± 0.3 | 714.9 ± 0.3 | – | – | – | 0.379 | 0.341 | 0.308
[1], x2 = 0.9 | 733.1 ± 0.3 | 722.9 ± 0.3 | 712.6 ± 0.3 | – | – | – | 0.368 | 0.331 | 0.299
[1], x2 = 0.95 | 731 ± 0.3 | 720.6 ± 0.3 | 710.3 ± 0.3 | – | – | – | 0.358 | 0.321 | 0.291
[2], x2 = 0 | – | – | – | 1.42578 ± 0.00033 | 1.42053 ± 0.00033 | 1.41537 ± 0.00033 | – | – | –
[2], x2 = 0.0502 | – | – | – | 1.42321 ± 0.00032 | 1.41757 ± 0.00032 | 1.4125 ± 0.00032 | – | – | –
[2], x2 = 0.1 | – | – | – | 1.42014 ± 0.00032 | 1.4146 ± 0.00032 | 1.40957 ± 0.00032 | – | – | –
[2], x2 = 0.15 | – | – | – | 1.41715 ± 0.00032 | 1.41158 ± 0.00032 | 1.40663 ± 0.00032 | – | – | –
[2], x2 = 0.2 | – | – | – | 1.41419 ± 0.00032 | 1.40859 ± 0.00032 | 1.40365 ± 0.00032 | – | – | –
[2], x2 = 0.25 | – | – | – | 1.41129 ± 0.00032 | 1.40565 ± 0.00032 | 1.40068 ± 0.00032 | – | – | –
[2], x2 = 0.3 | – | – | – | 1.40842 ± 0.00032 | 1.40277 ± 0.00032 | 1.39775 ± 0.00032 | – | – | –
[2], x2 = 0.35 | – | – | – | 1.40558 ± 0.00032 | 1.3999 ± 0.00032 | 1.39484 ± 0.00032 | – | – | –
[2], x2 = 0.4 | – | – | – | 1.40277 ± 0.00032 | 1.39707 ± 0.00032 | 1.39197 ± 0.00032 | – | – | –
[2], x2 = 0.45 | – | – | – | 1.39999 ± 0.00032 | 1.39428 ± 0.00032 | 1.38912 ± 0.00032 | – | – | –
[2], x2 = 0.5 | – | – | – | 1.39721 ± 0.00032 | 1.3915 ± 0.00032 | 1.38631 ± 0.00032 | – | – | –
[2], x2 = 0.55 | – | – | – | 1.3945 ± 0.00032 | 1.38878 ± 0.00032 | 1.38356 ± 0.00032 | – | – | –
[2], x2 = 0.6 | – | – | – | 1.3918 ± 0.00032 | 1.3861 ± 0.00032 | 1.38083 ± 0.00032 | – | – | –
[2], x2 = 0.65 | – | – | – | 1.38914 ± 0.00032 | 1.38347 ± 0.00032 | 1.37818 ± 0.00032 | – | – | –
[2], x2 = 0.7 | – | – | – | 1.38652 ± 0.00032 | 1.38082 ± 0.00032 | 1.37552 ± 0.00032 | – | – | –
[2], x2 = 0.75 | – | – | – | 1.38392 ± 0.00031 | 1.37823 ± 0.00031 | 1.37286 ± 0.00031 | – | – | –
[2], x2 = 0.8 | – | – | – | 1.38136 ± 0.00031 | 1.37565 ± 0.00031 | 1.37025 ± 0.00031 | – | – | –
[2], x2 = 0.85 | – | – | – | 1.37883 ± 0.00031 | 1.37309 ± 0.00031 | 1.36765 ± 0.00031 | – | – | –
[2], x2 = 0.9 | – | – | – | 1.37629 ± 0.00031 | 1.37053 ± 0.00031 | 1.36503 ± 0.00031 | – | – | –
[2], x2 = 0.95 | – | – | – | 1.37377 ± 0.00031 | 1.36799 ± 0.00031 | 1.36243 ± 0.00031 | – | – | –
